In US20160083357A1, “NOVEL TETRAZOLONE DERIVATIVES” (Hoffmann-La Roche Inc., priority 2013, published 2016):
Read-outs that look alike come from different tables or passages of the source.

Experiments:
human CB2 receptors = biological target: T1, human CB2 receptors (Homo sapiens, UniProt P34972); test: cAMP assay, human CB2; format: cell-based
T1 construct: expressed in transfected cells; host or cells: CHO cells
Outline: (§1)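 CHO cells expressing human CB1 or CB2, preincubated in Krebs Ringer bicarbonate with 1 mM IBMX, then compound for 30 min at 30° C. cAMP quantified by time-resolved FRET (cAMP-Nano-TRF) against a cAMP standard curve; EC50 values derived.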

human CB1 receptors = biological target: T2, human CB1 receptors (Homo sapiens, UniProt P21554); test: cAMP assay, human CB1; format: cell-based
T2 construct: expressed in transfected cells; host or cells: CHO cells
T2 sequence (P21554 whole entry): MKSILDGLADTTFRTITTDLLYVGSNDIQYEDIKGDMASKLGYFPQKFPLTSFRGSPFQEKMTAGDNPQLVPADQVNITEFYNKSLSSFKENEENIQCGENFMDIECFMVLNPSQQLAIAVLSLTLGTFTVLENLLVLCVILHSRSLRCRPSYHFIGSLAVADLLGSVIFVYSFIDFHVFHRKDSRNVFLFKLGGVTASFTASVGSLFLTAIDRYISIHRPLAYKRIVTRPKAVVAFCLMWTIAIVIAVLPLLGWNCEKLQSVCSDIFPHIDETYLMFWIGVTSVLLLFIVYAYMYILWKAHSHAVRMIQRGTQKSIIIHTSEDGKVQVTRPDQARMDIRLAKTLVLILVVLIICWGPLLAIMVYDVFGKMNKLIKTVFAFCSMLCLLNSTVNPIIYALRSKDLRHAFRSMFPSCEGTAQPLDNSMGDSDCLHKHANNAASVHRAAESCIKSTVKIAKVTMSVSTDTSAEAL
Outline: as §1

[1] = functional cAMP assay, CHO cells expressing human CB2, read-out: Ec50: CB2 - hu cAMP
[2] = functional cAMP assay, CHO cells expressing human CB1, read-out: Ec50: CB1 - hu cAMP

T1 sequence (P34972 whole entry): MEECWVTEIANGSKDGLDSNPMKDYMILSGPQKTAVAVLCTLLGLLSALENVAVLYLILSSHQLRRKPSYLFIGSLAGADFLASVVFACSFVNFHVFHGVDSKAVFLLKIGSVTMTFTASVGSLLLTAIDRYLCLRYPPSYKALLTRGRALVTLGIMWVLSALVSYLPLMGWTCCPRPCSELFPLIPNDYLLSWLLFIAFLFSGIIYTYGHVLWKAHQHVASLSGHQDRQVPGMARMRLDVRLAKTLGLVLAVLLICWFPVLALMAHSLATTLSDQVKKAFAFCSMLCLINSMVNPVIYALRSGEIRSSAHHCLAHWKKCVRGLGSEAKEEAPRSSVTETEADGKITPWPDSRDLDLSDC

| SMILES | EC50 (human CB2 receptors; [1]) [µM] | EC50 (human CB1 receptors; [2]) [µM] | EC50 (human CB2 receptors) [µM] | EC50 (human CB1 receptors) [µM] |
| --- | --- | --- | --- | --- |
| CC1CCCN1C(=O)n1nnn(-c2cccc(F)c2)c1=O (stereo not shown) [Example 48, 1-(3-Fluoro-phenyl)-4-(2-methyl-pyrrolidine-1-carbonyl)-1,4-dihydro-tetrazol-5-one] | 0.0067 | > 10 |  |  |
| CCOCCN(CC)C(=O)n1nnn(-c2cccc(Cl)c2)c1=O [Example 98, 4-(3-Chloro-phenyl)-5-oxo-4,5-dihydro-tetrazole-1-carboxylic acid (2-ethoxy-ethyl)-ethyl-amide] |  |  | 0.0018 | > 10 |
| CC1(C)CCCN1C(=O)n1nnn(-c2cccc(F)c2)c1=O [Example 46, 1-(2,2-Dimethyl-pyrrolidine-1-carbonyl)-4-(3-fluoro-phenyl)-1,4-dihydro-tetrazol-5-one] | 0.0902 | > 10 |  |  |
| CC[C@H](C)[C@@H](C(=O)OC)N(C)C(=O)n1nnn(-c2cccc(F)c2)c1=O [Example 13, (2S,3S)-2-{[4-(3-Fluoro-phenyl)-5-oxo-4,5-dihydro-tetrazole-1-carbonyl]-methyl-amino}-3-methyl-pentanoic acid methyl ester] | 0.0112 | > 10 |  |  |
| CCOCCN(CC)C(=O)n1nnn(-c2cccc(OC(F)(F)F)c2)c1=O [Example 99, 5-Oxo-4-(3-trifluoromethoxy-phenyl)-4,5-dihydro-tetrazole-1-carboxylic acid (2-ethoxy-ethyl)-ethyl-amide] | 0.0125 | > 10 |  |  |
| O=C(N1CCOCC1)n1nnn(-c2ccccc2C(F)(F)F)c1=O [Example 119, 1-(morpholine-4-carbonyl)-4-[2-(trifluoromethyl)phenyl]tetrazol-5-one] | 0.386 | > 10 |  |  |
| Cn1ccc2cc(-n3nnn(C(=O)N4CCOCC4)c3=O)ccc21 [Example 133, 1-(1-methylindol-5-yl)-4-(morpholine-4-carbonyl)tetrazol-5-one] | 0.018 | > 10 |  |  |
| O=C(N1CCOCC1)n1nnn(-c2ccc(F)cc2F)c1=O [Example 123, 1-(2,4-difluorophenyl)-4-(morpholine-4-carbonyl)tetrazol-5-one] | 0.012 | > 10 |  |  |
| CC(C(=O)N1CCCC1)N1CCN(C(=O)n2nnn(-c3cccc(Cl)c3)c2=O)CC1 (stereo not shown) [Example 116, 1-(3-Chloro-phenyl)-4-[4-(1-methyl-2-oxo-2-pyrrolidin-1-yl-ethyl)-piperazine-1-carbonyl]-1,4-dihydro-tetrazol-5-one] | 0.122 | > 10 |  |  |
| CCOCCN(C)C(=O)n1nnn(-c2cccc(OC(F)(F)F)c2)c1=O [Example 112, 5-Oxo-4-(3-trifluoromethoxy-phenyl)-4,5-dihydro-tetrazole-1-carboxylic acid (2-ethoxy-ethyl)-methyl-amide] |  |  | 0.0041 | > 10 |
| CC1CN(C(=O)n2nnn(-c3cccc(F)c3)c2=O)CC(C)O1 (stereo not shown) [Example 58, 1-(2,6-Dimethyl-morpholine-4-carbonyl)-4-(3-fluoro-phenyl)-1,4-dihydro-tetrazol-5-one] | 0.0454 | > 10 |  |  |
| COc1ccc(CCN(C)C(=O)n2nnn(-c3cccc(F)c3)c2=O)cc1OC [Example 1, 4-(3-Fluoro-phenyl)-5-oxo-4,5-dihydro-tetrazole-1-carboxylic acid [2-(3,4-dimethoxy-phenyl)-ethyl]-methyl-amide] | 0.0006 | > 10 |  |  |
| O=C(N1CCS(=O)(=O)CC1)n1nnn(-c2cccc(F)c2)c1=O [Example 29, 1-(1,1-Dioxo-1λ6-thiomorpholine-4-carbonyl)-4-(3-fluoro-phenyl)-1,4-dihydro-tetrazol-5-one] | 0.0416 | > 10 |  |  |
| O=C(N1CCOCC1)n1nnn(-c2ccc(C(F)(F)F)cc2)c1=O [Example 121, 1-(morpholine-4-carbonyl)-4-[4-(trifluoromethyl)phenyl]tetrazol-5-one] | 0.016 | > 10 |  |  |
| O=C(CN1CCN(C(=O)n2nnn(-c3ccc(Cl)cc3)c2=O)CC1)N1CCOCC1 [Example 91, 1-(4-Chloro-phenyl)-4-[4-(2-morpholin-4-yl-2-oxo-ethyl)-piperazine-1-carbonyl]-1,4-dihydro-tetrazol-5-one] | 0.0428 | > 10 |  |  |
| N#CC1CCN(C(=O)n2nnn(-c3cccc(F)c3)c2=O)CC1 [Example 61, 1-[4-(3-Fluoro-phenyl)-5-oxo-4,5-dihydro-tetrazole-1-carbonyl]-piperidine-4-carbonitrile] | 0.0068 | > 10 |  |  |
| CC(=O)N[C@H]1CCN(C(=O)n2nnn(-c3ccc(Cl)cc3)c2=O)C1 [Example 70, N—{(S)-1-[4-(4-Chloro-phenyl)-5-oxo-4,5-dihydro-tetrazole-1-carbonyl]-pyrrolidin-3-yl}-acetamide] | 0.0321 | > 10 |  |  |
| CC(=O)N[C@H]1CCN(C(=O)n2nnn(-c3cccc(OC(F)(F)F)c3)c2=O)C1 [Example 69, N—{(S)-1-[5-Oxo-4-(3-trifluoromethoxy-phenyl)-4,5-dihydro-tetrazole-1-carbonyl]-pyrrolidin-3-yl}-acetamide] | 0.0182 | > 10 |  |  |
| CCN(C(C)=O)C1CCN(C(=O)n2nnn(-c3cccc(OC(F)(F)F)c3)c2=O)C1 (stereo not shown) [Example 72, N-Ethyl-N-{1-[5-oxo-4-(3-trifluoromethoxy-phenyl)-4,5-dihydro-tetrazole-1-carbonyl]-pyrrolidin-3-yl}-acetamide] | 0.027 | > 10 |  |  |
| COCC1CCCCN1C(=O)n1nnn(-c2cccc(F)c2)c1=O (stereo not shown) [Example 34, 1-(3-Fluoro-phenyl)-4-(2-methoxymethyl-piperidine-1-carbonyl)-1,4-dihydro-tetrazol-5-one] | 0.019 | > 10 |  |  |
| COCCN(C(=O)n1nnn(-c2cccc(F)c2)c1=O)C(C)C [Example 55, 4-(3-Fluoro-phenyl)-5-oxo-4,5-dihydro-tetrazole-1-carboxylic acid isopropyl-(2-methoxy-ethyl)-amide] | 0.0041 | > 10 |  |  |
| CC(=O)N[C@H]1CCN(C(=O)n2nnn(-c3cccc(Cl)c3)c2=O)C1 [Example 68, N—{(S)-1-[4-(3-Chloro-phenyl)-5-oxo-4,5-dihydro-tetrazole-1-carbonyl]-pyrrolidin-3-yl}-acetamide] | 0.0395 | > 10 |  |  |

The remaining molecules from weak to strong by EC50 (human CB2 receptors; [1]), led by results:

| EC50 (human CB2 receptors; [1]) [µM] | EC50 (human CB1 receptors; [2]) [µM] | SMILES | EC50 (human CB2 receptors) [µM] | EC50 (human CB1 receptors) [µM] |
| --- | --- | --- | --- | --- |
| 0.988 | > 10 | C[C@@H]1CN(C(=O)n2nnn(-c3cccc(F)c3)c2=O)C[C@H](C)O1 [Example 59, 1-((2S,6R)-2,6-Dimethyl-morpholine-4-carbonyl)-4-(3-fluoro-phenyl)-1,4-dihydro-tetrazol-5-one] |  |  |
| 0.898 | > 10 | Cn1c(Cn2nnn(-c3cccc(F)c3)c2=O)nnc1S(C)(=O)=O [Example 17, 1-(3-Fluoro-phenyl)-4-(5-methanesulfonyl-4-methyl-4H-[1,2,4]triazol-3-ylmethyl)-1,4-dihydro-tetrazol-5-one] |  |  |
| 0.874 | > 10 | CCCn1nnn(C(=O)N(C)c2cccnc2)c1=O [Example 36, 5-Oxo-4-propyl-4,5-dihydro-tetrazole-1-carboxylic acid methyl-pyridin-3-yl-amide] |  |  |
| 0.407 | > 10 | CC(C)Cn1nnn(C(=O)N(C)c2cccnc2)c1=O [Example 37, 4-Isobutyl-5-oxo-4,5-dihydro-tetrazole-1-carboxylic acid methyl-pyridin-3-yl-amide] |  |  |
| 0.166 | > 10 | N#CCCN(C(=O)n1nnn(-c2cccc(F)c2)c1=O)C1CC1 [Example 31, 4-(3-Fluoro-phenyl)-5-oxo-4,5-dihydro-tetrazole-1-carboxylic acid (2-cyano-ethyl)-cyclopropyl-amide] |  |  |
| 0.129 | > 10 | N#C[C@H]1CCCN1C(=O)n1nnn(-c2cccc(F)c2)c1=O [Example 52, (R)-1-[4-(3-Fluoro-phenyl)-5-oxo-4,5-dihydro-tetrazole-1-carbonyl]-pyrrolidine-2-carbonitrile] |  |  |
| 0.0528 | > 10 | CCN(CC)C(=O)N1CCN(C(=O)n2nnn(-c3cccc(F)c3)c2=O)CC1 [Example 40, 4-[4-(3-Fluoro-phenyl)-5-oxo-4,5-dihydro-tetrazole-1-carbonyl]-piperazine-1-carboxylic acid diethylamide] |  |  |
| 0.0164 | > 10 | CN(C)C(=O)CN1CCN(C(=O)n2nnn(-c3cccc(Cl)c3)c2=O)CC1 [Example 92, 2-{4-[4-(3-Chloro-phenyl)-5-oxo-4,5-dihydro-tetrazole-1-carbonyl]-piperazin-1-yl}-N,N-dimethyl-acetamide] |  |  |
| 0.0095 | > 10 | COCCN(C(=O)n1nnn(-c2cccc(OC(F)(F)F)c2)c1=O)C(C)C [Example 84, 5-Oxo-4-(3-trifluoromethoxy-phenyl)-4,5-dihydro-tetrazole-1-carboxylic acid isopropyl-(2-methoxy-ethyl)-amide] |  |  |
| 0.0092 | > 10 | O=C(N1CCOCC1)n1nnn(-c2cccc(C(F)(F)F)c2)c1=O [Example 120, 1-(morpholine-4-carbonyl)-4-[3-(trifluoromethyl)phenyl]tetrazol-5-one] |  |  |
| 0.0074 | > 10 | Cc1cc(C2CCCN2C(=O)n2nnn(-c3ccc(Cl)cc3)c2=O)on1 (stereo not shown) [Example 76, 1-(4-Chloro-phenyl)-4-[2-(3-methyl-isoxazol-5-yl)-pyrrolidine-1-carbonyl]-1,4-dihydro-tetrazol-5-one] |  |  |
| 0.007 | > 10 | O=C(N1CCOCC1)n1nnn(-c2ccc(F)c(F)c2)c1=O [Example 125, 1-(3,4-difluorophenyl)-4-(morpholine-4-carbonyl)tetrazol-5-one] |  |  |
| 0.0032 | > 10 | O=C(N1CCC(c2ccccc2)C1)n1nnn(-c2cccc(F)c2)c1=O (stereo not shown) [Example 41, 1-(3-Fluoro-phenyl)-4-(3-phenyl-pyrrolidine-1-carbonyl)-1,4-dihydro-tetrazol-5-one] |  |  |
